Measured values reported in ChEMBL document CHEMBL1201862, “PubChem BioAssay data set” (2004).
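Values below derive from 48-hour exposures of cells grown in 96-well plates, with endpoints linearly interpolated between the two concentrations bracketing the appropriate inhibition level. GI50 marks 50% less growth.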 Calls of active or inactive are those of the source. Cut-off read from the data, not from the text of the source: active = GI50 up to about 1.1 µM and inactive = higher.

What was measured:
Experiment in all cases: NCI-60 cell line screen, 48 h
KM12 = tested on: KM12
RXF 393 = tested on: RXF 393
HCC 2998 = tested on: HCC 2998
OVCAR-3 = tested on: OVCAR-3
SF-268 = tested on: SF-268
HOP-92 = tested on: HOP-92
EKVX = tested on: EKVX
UO-31 = tested on: UO-31
A549 = tested on: A549
NCI-H23 = tested on: NCI-H23
SF-539 = tested on: SF-539
NCI-H522 = tested on: NCI-H522
HL-60 = tested on: HL-60
SK-MEL-28 = tested on: SK-MEL-28
CAKI-1 = tested on: CAKI-1
PC-3 = tested on: PC-3
MCF7 = tested on: MCF7
MDA-MB-231 = tested on: MDA-MB-231
NCI/ADR-RES = tested on: NCI/ADR-RES

| SMILES | GI50 (KM12) | GI50 (RXF 393) | GI50 (HCC 2998) | GI50 (OVCAR-3) | GI50 (SF-268) | GI50 (HOP-92) | GI50 (EKVX) | GI50 (UO-31) | GI50 (A549) | GI50 (NCI-H23) | GI50 (SF-539) | GI50 (NCI-H522) | GI50 (HL-60) | GI50 (SK-MEL-28) | GI50 (CAKI-1) | GI50 (PC-3) | GI50 (MCF7) | GI50 (MDA-MB-231) | GI50 (NCI/ADR-RES) |
| --- | --- | --- | --- | --- | --- | --- | --- | --- | --- | --- | --- | --- | --- | --- | --- | --- | --- | --- | --- |
| COC(=O)C1=C(C(=O)OC)C23CC1C1C(C(=O)OC)=C(C(=O)OC)C12C1C=CC3C2C(=O)OC(=O)C21 (stereo unspecified) | 31 µM (inactive) | 38.9 µM (inactive) | 66.7 µM (inactive) | 3.72 µM (inactive) | 48.3 µM (inactive) | 25.3 µM (inactive) | > 100 µM (inactive) | 84.9 µM (inactive) | 49 µM (inactive) | 37.8 µM (inactive) | 23.7 µM (inactive) | 22.4 µM (inactive) | 40.1 µM (inactive) | 65.5 µM (inactive) | – | – | – | – | – |
| O=C(/C=C/c1ccccc1)CC(=O)CCC(=O)Nc1ccc(Cl)cc1 | 44.4 µM (inactive) | – | 80.7 µM (inactive) | > 100 µM (inactive) | 60.3 µM (inactive) | – | > 100 µM (inactive) | 94 µM (inactive) | > 100 µM (inactive) | > 100 µM (inactive) | > 100 µM (inactive) | > 100 µM (inactive) | > 100 µM (inactive) | – | 57.8 µM (inactive) | – | – | – | – |
| Cc1ccc2c(c1)c(=O)c1c(NCCN(C)C)ccc3nnn2c31 | 2.45 µM (inactive) | 2.88 µM (inactive) | 3.4 µM (inactive) | 5.55 µM (inactive) | 4.24 µM (inactive) | 2.36 µM (inactive) | 3.64 µM (inactive) | 3.56 µM (inactive) | 2.83 µM (inactive) | 3.6 µM (inactive) | 5.26 µM (inactive) | 4.81 µM (inactive) | 2.1 µM (inactive) | 5.42 µM (inactive) | 2.02 µM (inactive) | – | – | – | – |
| CCOC(=O)N1c2ccccc2C(C)=CC(C)C1C (stereo unspecified) | 9.82 µM (inactive) | 11.3 µM (inactive) | 45.6 µM (inactive) | 16.7 µM (inactive) | 38 µM (inactive) | – | 35.3 µM (inactive) | 55.7 µM (inactive) | 22.6 µM (inactive) | 22.8 µM (inactive) | 20.4 µM (inactive) | 18.7 µM (inactive) | 27.2 µM (inactive) | 35.9 µM (inactive) | 16.2 µM (inactive) | 55.8 µM (inactive) | 10.3 µM (inactive) | 22.9 µM (inactive) | 25.8 µM (inactive) |
| CC(=O)Nc1ccc(C(=O)NN2C(=O)C(Cl)C2c2ccccc2)cc1 (stereo unspecified) | – | > 100 µM (inactive) | – | > 100 µM (inactive) | > 100 µM (inactive) | > 100 µM (inactive) | > 100 µM (inactive) | > 100 µM (inactive) | > 100 µM (inactive) | > 100 µM (inactive) | > 100 µM (inactive) | > 100 µM (inactive) | > 100 µM (inactive) | > 100 µM (inactive) | > 100 µM (inactive) | – | – | – | – |
| COc1ccc(CNc2nc3ccc(C(F)(F)F)cc3nc2-c2ccccc2)cc1OC | – | 8.89 µM (inactive) | 13.9 µM (inactive) | 60.8 µM (inactive) | 63.2 µM (inactive) | 2.9 µM (inactive) | > 100 µM (inactive) | 47.6 µM (inactive) | 31.3 µM (inactive) | 78.7 µM (inactive) | 54.3 µM (inactive) | – | 6.98 µM (inactive) | > 100 µM (inactive) | – | – | – | – | – |
| CSC(C1c2ccccc2N(c2ccc(C)cc2)c2[nH]c(=O)n(C)c(=O)c21)S(=O)(=O)c1ccc(C)cc1 (stereo unspecified) | – | – | > 100 µM (inactive) | > 100 µM (inactive) | > 100 µM (inactive) | > 100 µM (inactive) | > 100 µM (inactive) | > 100 µM (inactive) | > 100 µM (inactive) | > 100 µM (inactive) | > 100 µM (inactive) | 63.8 µM (inactive) | 43.5 µM (inactive) | > 100 µM (inactive) | > 100 µM (inactive) | – | – | – | – |
| COC(=O)NC1(NC(=O)OC)NC(=O)c2cc(OC)c(OC)cc2N1 | 35.8 µM (inactive) | – | – | 21.2 µM (inactive) | 78.7 µM (inactive) | – | 89.3 µM (inactive) | 40 µM (inactive) | 61.8 µM (inactive) | 50.2 µM (inactive) | 25.6 µM (inactive) | 2.54 µM (inactive) | – | 29.3 µM (inactive) | 19.2 µM (inactive) | 26.1 µM (inactive) | 16.1 µM (inactive) | – | 31.5 µM (inactive) |
| C[C@@]12[Se]c3ccccc3[C@]1(C)[Se]c1ccccc12 | 6.95 µM (inactive) | 2.75 µM (inactive) | 6.47 µM (inactive) | > 100 µM (inactive) | > 100 µM (inactive) | 4.79 µM (inactive) | > 100 µM (inactive) | – | – | > 100 µM (inactive) | – | 4.05 µM (inactive) | 2.74 µM (inactive) | – | > 100 µM (inactive) | – | – | – | – |
| Nc1ccn(CCO)c(=O)n1 | > 100 µM (inactive) | > 100 µM (inactive) | > 100 µM (inactive) | > 100 µM (inactive) | > 100 µM (inactive) | > 100 µM (inactive) | > 100 µM (inactive) | > 100 µM (inactive) | > 100 µM (inactive) | – | > 100 µM (inactive) | > 100 µM (inactive) | > 100 µM (inactive) | > 100 µM (inactive) | > 100 µM (inactive) | – | – | – | – |
| C[N+]1(CCNP(=S)(NCC[N+]2(C)Cc3c(ccc4c3OCO4)C3C2c2cc4c(cc2C[C@@H]3O)OCO4)NCC[N+]2(C)Cc3c(ccc4c3OCO4)C3C2c2cc4c(cc2C[C@@H]3O)OCO4)Cc2c(ccc3c2OCO3)C2C1c1cc3c(cc1C[C@H]2O)OCO3 (stereo partly specified) | < 0.00191 µM (active) | < 0.00191 µM (active) | < 0.00191 µM (active) | < 0.00191 µM (active) | < 0.00191 µM (active) | < 0.00191 µM (active) | < 0.00191 µM (active) | < 0.00191 µM (active) | < 0.00191 µM (active) | < 0.00191 µM (active) | < 0.00191 µM (active) | < 0.00191 µM (active) | < 0.00191 µM (active) | < 0.00191 µM (active) | 13.2 µM (inactive) | – | – | – | – |
| C[N+](C)(C)CC1CCCCC1=O (stereo unspecified) | 58.2 µM (inactive) | 18.4 µM (inactive) | – | 19.1 µM (inactive) | – | – | 19.9 µM (inactive) | > 100 µM (inactive) | > 100 µM (inactive) | 22.5 µM (inactive) | > 100 µM (inactive) | 19.1 µM (inactive) | 13.9 µM (inactive) | 17.3 µM (inactive) | – | – | – | – | – |
| CC(N)Cc1cccc(C(F)(F)F)c1 (stereo unspecified) | > 100 µM (inactive) | > 100 µM (inactive) | > 100 µM (inactive) | > 100 µM (inactive) | > 100 µM (inactive) | > 100 µM (inactive) | > 100 µM (inactive) | > 100 µM (inactive) | > 100 µM (inactive) | > 100 µM (inactive) | > 100 µM (inactive) | > 100 µM (inactive) | > 100 µM (inactive) | > 100 µM (inactive) | > 100 µM (inactive) | – | – | – | – |
| c1ccc(OC2=NC3=S(S2)SC(Oc2ccccc2)=N3)cc1 | 16.9 µM (inactive) | 6.01 µM (inactive) | 19.5 µM (inactive) | 14.5 µM (inactive) | 21.7 µM (inactive) | – | 21.5 µM (inactive) | 18.1 µM (inactive) | 21.6 µM (inactive) | 21.3 µM (inactive) | 22.3 µM (inactive) | 16.4 µM (inactive) | 16.8 µM (inactive) | – | 17.7 µM (inactive) | – | – | – | – |
| CC1=CC[C@@H](C(C)(C)O)C[C@@H]1O | > 5000 µM (inactive) | > 5000 µM (inactive) | > 5000 µM (inactive) | > 5000 µM (inactive) | > 5000 µM (inactive) | > 5000 µM (inactive) | > 5000 µM (inactive) | > 5000 µM (inactive) | > 5000 µM (inactive) | > 5000 µM (inactive) | > 5000 µM (inactive) | > 5000 µM (inactive) | 3940 µM (inactive) | > 5000 µM (inactive) | – | – | – | – | – |
| C=CCSC[C@H](NC(=O)COc1ccccc1)C(=O)NC(C(=O)OCc1ccc([N+](=O)[O-])cc1)=C(C)C | 73.5 µM (inactive) | 49.7 µM (inactive) | > 100 µM (inactive) | 45.7 µM (inactive) | > 100 µM (inactive) | – | 43.7 µM (inactive) | 33.6 µM (inactive) | 62.1 µM (inactive) | – | – | 26.4 µM (inactive) | 23.3 µM (inactive) | > 100 µM (inactive) | – | – | – | – | – |
| [O-]c1c2c(nn1-c1ccccc1)c1ccccc1c[n+]2Cc1ccccc1 | > 100 µM (inactive) | 0.13 µM (active) | > 100 µM (inactive) | > 100 µM (inactive) | 47.1 µM (inactive) | > 100 µM (inactive) | > 100 µM (inactive) | > 100 µM (inactive) | > 100 µM (inactive) | > 100 µM (inactive) | > 100 µM (inactive) | 73.6 µM (inactive) | > 100 µM (inactive) | > 100 µM (inactive) | – | – | – | – | – |
| O=C1C(Cl)C(c2cccc([N+](=O)[O-])c2)N1n1cnc2ccccc2c1=O (stereo unspecified) | > 100 µM (inactive) | > 100 µM (inactive) | > 100 µM (inactive) | 78.7 µM (inactive) | > 100 µM (inactive) | – | > 100 µM (inactive) | 14.7 µM (inactive) | > 100 µM (inactive) | > 100 µM (inactive) | – | 46.3 µM (inactive) | 57 µM (inactive) | > 100 µM (inactive) | 91.2 µM (inactive) | – | – | – | – |
| COC(=O)c1cc2ccccc2c2nc3ccccc3c(Cl)c12 | > 100 µM (inactive) | > 100 µM (inactive) | > 100 µM (inactive) | > 100 µM (inactive) | > 100 µM (inactive) | > 100 µM (inactive) | > 100 µM (inactive) | – | > 100 µM (inactive) | > 100 µM (inactive) | 16.6 µM (inactive) | 32.9 µM (inactive) | > 100 µM (inactive) | > 100 µM (inactive) | > 100 µM (inactive) | – | – | – | – |
